From paper PMC10497828, “A novel peptide derived from vascular endothelial growth factor prevents amyloid beta aggregation and toxicity” (Aging Cell, 2023)
Ends that are not written are not given here.

What was measured:
Aβ42 oligomers (LMW Aβo) = biological target: T1, Aβ42 oligomers (LMW Aβo) (Homo sapiens, UniProt P05067); assay: Indirect ELISA, binding of immobilized BP/CP to biotinylated LMW Aβ42 oligomers
T1 construct: Biotinyl-Amyloid b pr otein ( 1-42); purchased Bachem H-5642; host or cells: chemical synthesis
Procedure: (§1) Synthetic Aβ40, Aβ42, and their biotinylated forms were obtained as lyophilized samples from Bachem (Aβ40, b‐Aβ40, Aβ42 and b‐Aβ42). Briefly, peptides were solubilized in 1,1,1,3,3,3‐hexafluoro‐2‐propanol to prevent oligomerization, then evaporated overnight under a chemical fume hood, and stored as a dried peptide film at −80°C until use, as previously described (Stine et al., [2003]). Aβ monomers (Aβm) were prepared extemporaneously by first dissolving the peptide film in 2 mM dimethyl sulfoxide (DMSO) and vortexing for 1 min. Peptides were further diluted to 100 μM in ice‐cold PBS. Diluted peptides were subsequently sonicated for 20 min at 4°C, centrifuged at 10,000g for 3 min, then the supernatant was collected and concentration of Aβm measured using a micro BCA protein assay kit, prior to being aliquoted and stored at −20°C until use. […]
(§2) The binding of CP or BP to synthetic biotinylated LMW Aβo (oligomerized at 4°C for 24 h) or Aβ40 monomers (Aβm) was determined by indirect ELISA in which CP or BP were used as the capture antigens and the biotin tag of the biotinylated Aβ peptides for the detection. […] Absorbance was successively measured at 450 and 540 nm with a TECAN microplate reader and optical density values at 540 nm were subtracted from the ones at 450 nm to correct for optical imperfections of the plate. […]

[1] = biological target: T2, Aβo-VEGF interaction (recombinant human VEGF165) (Homo sapiens, UniProt P05067); assay: Competitive ELISA, Aβo binding to immobilized VEGF165; assay type: biochemical
T2 construct: Biotinyl-Amyloid b pr otein ( 1-42); purchased R&D Systems (VEGF165); Bachem (biotinyl-Aβ 1-42) 293-VE (VEGF165); H-5642 (biotinyl-Aβ 1-42)
Procedure: Data were expressed as mean ± SEM in ThT, Western blotting, synaptic targeting experiments and electrophysiological recordings (Table S2). Normality and variance homoscedasticity were assessed using descriptive analysis and appropriate tests. Sample size (n) was determined based on previous studies from the literature and pilot experiments; n refers to the number of ELISA, ThT or Western Blotting experiments, to coverslips or culture wells for hippocampal neuron cultures, and to mice per condition or per genotype for electrophysiological experiments. […] For the analysis of Aβ‐BP interaction, K D was determined by fitting the data to a two‐parameter saturation curve. […] For quantitative assessment of Aβ aggregation, Aβ expression level and the percentage of synapses colocalized with Aβ, data were compared for statistical significance between groups using a Kruskal–Wallis and a Dunn's post hoc test with Holm correction (R software) (Table S3). For electrophysiological data, statistical analysis between treatments and/or genotypes were carried out using a Kruskal–Wallis followed by a Dunn's post hoc test to compare differences in fEPSP slopes (Table S3). […]
Competi tive ELISA experi ments were performed to anal yse the ability of the BP to impede bi oti nyl ated LMW Aβo bi ndi ng to VEGF. […] After adding the stop solution, absorbance was measured using a TECAN microplate reader.

Aβ40 monomers (Aβm) = biological target: T3, Aβ40 monomers (Aβm) (Homo sapiens, UniProt P05067); assay: Indirect ELISA, binding of immobilized BP/CP to biotinylated Aβ40 monomers; conditions: Aβm 0 to 10 μg/mL
T3 construct: Biotinyl-Amyloid b pr otein ( 1-40); purchased Bachem H-5914; host or cells: chemical synthesis
Procedure: as §1, §2

[2] = system: Aβ42 monomers (Aβm), fibrillation; assay: Thioflavin T aggregation assay; assay type: biochemical; conditions: increasing concentrations 0.5 to 15 μM, 15 μM Aβm, 24 h
Procedure: as §1
Thioflavin‐T (ThT) assays were performed in black polystyrene 384‐well plates using a Tecan microplate reader with a set of excitation/emission wavelengths of 450/490 nm. […] The plate was sealed with a transparent plastic film and incubated at 37°C prior to fluorescence measurement. ThT fluorescence intensity was monitored every 5 min over 24 h at 37°C without agitation. Three replicates per condition were measured.
Data were expressed as mean ± SEM in ThT, Western blotting, synaptic targeting experiments and electrophysiological recordings (Table S2). […]

Aβ42 fibrils = assay: Transmission electron microscopy of Aβ aggregates; assay type: biochemical
Procedure: Synthetic Aβ40, Aβ42, and their biotinylated forms were obtained as lyophilized samples from Bachem (Aβ40, b‐Aβ40, Aβ42 and b‐Aβ42). Briefly, peptides were solubilized in 1,1,1,3,3,3‐hexafluoro‐2‐propanol to prevent oligomerization, then evaporated overnight under a chemical fume hood, and stored as a dried peptide film at −80°C until use, as previously described (Stine et al., [2003]). Aβ monomers (Aβm) were prepared extemporaneously by first dissolving the peptide film in 2 mM dimethyl sulfoxide (DMSO) and vortexing for 1 min. Peptides were further diluted to 100 μM in ice‐cold PBS. Diluted peptides were subsequently sonicated for 20 min at 4°C, centrifuged at 10,000g for 3 min, then the supernatant was collected and concentration of Aβm measured using a micro BCA protein assay kit, prior to being aliquoted and stored at −20°C until use. […] Aβ preparations were used either directly as monomers (for Aβ40 Elisa assays and ThT experiments) or were subjected to different oligomerization states, enriched in high molecular weight Aβ42 oligomers (HMW Aβo) or in low molecular weight Aβ42 oligomers (LMW Aβo). For Aβ preparations enriched in Aβ fibrils, monomeric Aβ42 peptides (Aβm) were incubated at a concentration of either 30 μM or 15 μM during 24 h at 37°C. For HMW Aβo, Aβm was incubated at 15 μM for 2 h at 37°C. […]

[3] = system: Aβ42 oligomerization (monomers, LMW and HMW Aβo); assay: Western blot (6E10) of soluble Aβ species formed in presence of peptide; assay type: biochemical; conditions: equimolar peptide, 15 μM Aβm, 37°C
Procedure: as §1
After a 45 min blocking step in Tris‐buffered saline, 0.1% Tween, pH 7.6, 5% milk, membranes were immunoblotted overnight at 4°C with dedicated antibodies (Table S1) diluted in Tris‐buffered saline, 0.1% Tween, pH 7.6, with 2% milk. […] Proteins were visualized with an ECL detection system and band intensities quantified using a densitometric analysis with ImageJ software.

[4] = system: hippocampal neuron cultures (Aβo binding to PSD95/Bassoon synapses); assay: Synaptic targeting in hippocampal neurons by Aβ oligomerized with peptide; assay type: cell-based, C57Bl/6JRj mouse; conditions: Aβ oligomerized 2 h in presence of peptide; 0.5 μM, 30 min
Procedure: Primary hippocampal neuron cultures were prepared from E17‐18 C57Bl/6JRj mice. Briefly, hippocampi were removed and collected in Hank's buffered salt solution (HBSS), digested in HBSS supplemented with trypsin (0.25% v/v) for 10 min at 37°C and then rinsed in HBSS and BSA 0.2%. Next, hippocampi were triturated in Neurobasal medium without phenol red, supplemented with L‐glutamine (2 mM), 2% B27, 1% penicillin/streptomycin (P/S) (10,000 U/mL). Hippocampal neurons were then plated onto poly‐L‐lysine coated coverslips (0.5 mg/mL) at a low density (15 × 10^3 cells/cm^2) for synaptic targeting experiments. Neurons were cultured in supplemented Neurobasal medium at 37°C under 5% CO2, one‐half of the medium being changed once a week. […]
Treated hippocampal neuron cultures were fixed for 4 min in 4% paraformaldehyde (PFA) in 0.1 M phosphate buffer at RT, prior to immunostaining. After a blocking step in non‐permeabilizing condition (PBS, 1% BSA) surface‐bound biotinylated Aβ was detected with fluorescently tagged streptavidin incubated for 3 h at RT. […]
Subsequent analyses of hippocampal synapse staining were performed by a blinded investigator with Icy software. […] Biotinylated Aβ clusters were quantified in each ROI in collapsed Z‐stacks. […]

[5] = system: SC-CA1 synapses in WT hippocampal slices; assay: LTP (TBS) in WT hippocampal slices; assay type: cell-based, wild-type mouse
Procedure: (§3) Data were expressed as mean ± SEM in ThT, Western blotting, synaptic targeting experiments and electrophysiological recordings (Table S2). Normality and variance homoscedasticity were assessed using descriptive analysis and appropriate tests. Sample size (n) was determined based on previous studies from the literature and pilot experiments; n refers to the number of ELISA, ThT or Western Blotting experiments, to coverslips or culture wells for hippocampal neuron cultures, and to mice per condition or per genotype for electrophysiological experiments. […] For the analysis of Aβ‐BP interaction, K D was determined by fitting the data to a two‐parameter saturation curve. […] For quantitative assessment of Aβ aggregation, Aβ expression level and the percentage of synapses colocalized with Aβ, data were compared for statistical significance between groups using a Kruskal–Wallis and a Dunn's post hoc test with Holm correction (R software) (Table S3). For electrophysiological data, statistical analysis between treatments and/or genotypes were carried out using a Kruskal–Wallis followed by a Dunn's post hoc test to compare differences in fEPSP slopes (Table S3).

[6] = system: SC-CA1 synapses in APP/PS1 hippocampal slices; assay: LTP (TBS) in APP/PS1 hippocampal slices; assay type: cell-based, APP/PS1-21 mouse
Procedure: as §3

[7] = system: SC-CA1 synapses in WT hippocampal slices; assay: Paired-pulse facilitation in WT hippocampal slices; assay type: cell-based, wild-type mouse; conditions: 50 ms, after TBS
Procedure: (§4) Local field potential recordings (LFP) were performed on acute coronal hippocampal slices from 8‐month‐old wild type and transgenic heterozygous male APP/PS1‐21 mice to measure baseline synaptic response and long‐term potentiation (LTP) of Schaffer collaterals to CA1 (SC‐CA1) pyramidal cell synapses. Hippocampal slices (400 μm thick) were cut using a vibratome (Leica VT1200S) and incubated at room temperature in artificial cerebrospinal fluid (ACSF) containing (in mM): 124 NaCl, 10 glucose, 1.25 NaH2PO4, 2.5 KCl, 26 NaHCO3, 1.3 MgCl2, and 2.5 CaCl2, bubbled with 95% O2 and 5% CO2, pH 7.4 for 1 h prior to recording. Field excitatory postsynaptic potentials (fEPSPs) were recorded extracellularly in stratum radiatum of CA1 region of the dorsal hippocampus in presence of gamma‐aminobutyric acid (GABA)‐A receptor antagonist picrotoxin (100 μM). Electrical stimulation was realized with a bipolar tungsten electrode placed in CA1 stratum radiatum and fEPSPs were measured using borosilicate glass microelectrodes (~1–3 MΩ) filled with ACSF. […] LFP were sampled at 10 kHz and fEPSPs initial slope was computed to quantify synaptic responses. […] For quantification, the slope of the synaptic response to the second stimulation was divided by that of the first response.

[8] = system: SC-CA1 synapses in APP/PS1 hippocampal slices; assay: Paired-pulse facilitation in APP/PS1 hippocampal slices; assay type: cell-based, APP/PS1-21 mouse; conditions: 50 ms, after TBS
Procedure: as §4

[9] = system: VEGFR2 phosphorylation (Tyr1175) in HUVEC; assay: VEGFR2 phosphorylation Western blot in HUVEC; assay type: cell-based, human; conditions: 0.5 μM, 5 min
Procedure: Human um bi l i cal v ei n endothel i al C ell s (HUVEC ) were obtai ned from Pr omocel l and cul tured
in 6 cm Petri di s hes pre-coated wi th col l ag en I at 5 µ g /cm2 in 20 mM glacial acetic acid. HUVEC
were cultured at 7000 cells/cm2 in endothelial cell growth medium MV2 heparin free
(Promocel l ) s uppl emented wi th 1% P/S unti l reac hi ng 80% c onfl uency , an d were us ed for u p
0.5 µ M. After treatments, HUVEC were washed a nd i ncubated i n 6 00 mL of l ysi s buf fer (Tri s HCL 25 mM, EDTA 5 mM, DOC 0.5 mM, NP40 1%, SDS 0.1%, NaCl 150 mM), suppl emented with cOmplete protease inhibitor cocktail 2%, Benzonase 0.02%, Orthovanadate 2%, and phos phat as e i nhi bi t ors 2% for 10 mi n at 4°C .
For immunoblotting of HUVEC cel l l y s ates , 20 µg of proteins were separated on 3-8% g radi ent SDS-PAGE gels at 120V, with cathode and ano de contai ni ng XT Try ci ne buffe r. G el s w ere transferred on 0.2 µm nitrocellulose membranes at 120V for 2h in 5% methanol, Tris-Glycine buffer and immunoblotted.
were used in combination with approp riate secondary antibodies (Table S1)

[10] = system: synapses / LTP impaired by Aβo; conditions: ref Martin et al., 2021; cited from earlier work
[11] = 0.5 μM, at least 40 min before TBS

T2 sequence (P05067 672-713 limits assumed): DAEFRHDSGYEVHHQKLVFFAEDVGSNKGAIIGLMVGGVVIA
T1 sequence (P05067 672-713 limits assumed): as above
T3 sequence (P05067 672-711 limits assumed): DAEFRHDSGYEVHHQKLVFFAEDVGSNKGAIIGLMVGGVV

KRKKSRYKSWSVYVG [BP]
Kd (Aβ42 oligomers (LMW Aβo)): 12 nM | EC50 ([1]; Aβo 2.1 μM preincubated with BP 1 h RT, three-parameter sigmoidal fit, n = 5-6): 350 nM

NDYKDDDDKGAAA [CP]
Binding of Aβo to immobilized peptide (Aβ42 oligomers (LMW Aβo); ELISA, Aβo 0 to 10 μg/mL): failed to bind to the CP even at the highest concentration | Binding of Aβm to immobilized peptide (Aβ40 monomers (Aβm)): failed to bind to the CP even at the highest concentration | Effect on ThT fluorescence [2]: had no impact on ThT fluorescence | Morphology of Aβ aggregates by TEM (Aβ42 fibrils; Aβ 30 μM + equimolar peptide, 24 h at 37°C, n = 4): typical fibrillary structures | Structures formed by peptide alone, TEM (Aβ42 fibrils; peptide alone, no Aβ): do not show any detectable 3D structures | Effect on proportion of Aβ species [3]: did not change the proportion of Aβo species | Aβo binding to neuron surface and synapses [4]: strong binding to hippocampal neuron surface | Effect on LTP in WT slices [5, 11]: neither CP nor the BP impacted LTP responses | LTP amplitude, fEPSP slope 55–60 min after TBS ([5]; peptide 0.5 μM at least 40 min before TBS, WT slices, 8-month-old male, mean ± SEM, n = 6 mice): 191.4 ± 18.3% | Effect on LTP in APP/PS1 slices [6, 11]: failed to restore LTP | LTP amplitude, fEPSP slope 55–60 min after TBS ([6]; peptide 0.5 μM at least 40 min before TBS, APP/PS1 slices, 8-month-old male, mean ± SEM, n = 7 mice): 119 ± 9.1% | Effect on paired-pulse ratio [7]: no differences were detected | Effect on paired-pulse ratio [8]: no differences were detected | Effect on basal VEGFR2 phosphorylation [9]: did not affect basal VEGFR2 phosphorylation level | Effect on Aβo-VEGF interaction ([1]; peptide preincubated with Aβo 2.1 μM): did not affect Aβo binding

VEGF
Protection of synapses / LTP from Aβo [10]: ability to preserve synapses from dysfunction and LTP deficits caused by Aβo
